{
  "source": "patent US12472226B2",
  "about": "“Cell-permeable peptide” (priority 2019, dated 2025)",
  "key": {"HT-1080 cells [1]": {"test_system": "HT-1080 cells", "assay": "Test of inducing cell-death in vitro (Calcein-AM/PI dead cell rate)", "assay_type": "cell-based, human", "conditions": "9th day", "excerpt": "Human fibrosarcoma-derived HT-1080 cells (HT-1080 cells, JCRB cell bank) were used as cancer cells in the test for monitoring changes in mitochondrial membrane potential. HT-1080 cells, human osteosarcoma cell line Hos cells (Hos cells, JCRB cell bank), human histiocytic lymphoma/macrophage U937 cells (U937 cells, JCRB cell bank), human myeloid leukemia HL-60 cells (HL-60 cells, JCRB cell bank), acute monocytic leukemia THP-1 cells (THP-1 cells, JCRB cell bank), human alveolar basal epithelial adenocarcinoma cell A549 cells (A549 cells, Cell Resource Center for Biomedical Research, Institute of Development, Aging and Cancer, Tohoku University), human pancreatic carcinoma cells (MIA Paca 2 cells, Cell Resource Center for Biomedical Research, Institute of Development, Aging and Cancer, Tohoku University) and well differentiated human liver carcinoma-derived cell line HuH7 cells (HuH7 cells, Cell Resource Center for Biomedical Research, Institute of Development, Aging and Cancer, Tohoku University) were used as cancer cells in an in vitro cell-death induction test of cancer cells and a nuclear transport test of Example 2. Normal human gingival fibroblast cells Gin-1 (Gin-1 cells, DS Pharma Biomedical) were used as a control. The above-described cells were each inoculated into a 96-well culture plate (Falcon) at 5,000 cells/[…] and subjected to the following tests.\nThe peptide of SEQ ID NO: 1 labeled with FITC (Example 2) was used for the test of inducing cell-death in vitro in cancer cells. It was prepared the test example to which 100 μL of Example 2 and further 10% FBS were added and cultured for 9 days under conditions of 200 μL of serum-supplemented medium (Alpha modification of Eagle's MEM (α-MEM) (Thermo Fisher Scientific)+10% FBS). Furthermore, it was also produced the test example that was cultured for 21 days with the whole amount of Example 2-supplemented medium replaced every 7 days. As a control, the cells were cultured in a serum-supplemented medium (α-MEM+10% FBS) without addition and were used. A supernatant was removed after the completion of the culture. The cells were washed once with PBS and stained in PBS to which a fluorescent dye for living cell staining Calcein-AM (DOJINDO LABORATORIES) (final concentration: 0.1 μg/mL) and a fluorescent dye for dead cell staining Propidium Iodide (PI) (DOJINDO LABORATORIES) (final concentration: 0.3 μg/mL) were added, at 37° C. in a 5% CO2 cell incubator for 30 minutes. The living cells and dead cells were separately stained with Calcein-AM and PI, respectively and imaged with the confocal laser scanning microscope LSM800. Next, the dead cell rate relative to the number of total cells was analyzed using ImageJ.\nThe results are represented by the average value of the dead cell rate (the number red cells stained with IP/the number of total cells×100(%))±standard deviation (SD). In FIG. 2A, the vertical axis represents the rate of cell death when each cell was cultured with Example 2 (50 μg/mL) for 9 days and the horizontal axis represents various types of cells. The increase in the dead cell rate of the Gin-1 cells was not observed.\nThe concentrations of Examples 2 and 4 to 6 were adjusted to 12.5, 25, 50 and 100 μg/mL, respectively and then administrated to the HT-1080 cells for 9 days tested by the same method as in Test Example 2A. The cell staining and subsequent analyses of the dead cell rate relative to the number of total cells were performed in the same manner as Test Example 2A."}, "HT-1080 cells tumor": {"test_system": "HT-1080 cells tumor", "assay": "Delivery test on anticancer agent in tumor-bearing mice", "assay_type": "in vivo, BALB/c nude mouse", "procedure": "HT-1080 cells (1×10^7 cells/200 μL) were subcutaneously implanted into the back of 5 week-old BALB/c nude mouse (CHARLES RIVER LABORATORIES JAPAN, INC.). A tumor after the implantation was confirmed to reach 30 to 60 mm^3, and then they were subjected to the following tests.\nExample 2 was dissolved in the sterile water and adjusted to be 200 μg/200 μL by the addition of 2-time concentrated α-MEM (not containing glutamine or an antibiotic). It was intraperitoneally administered to tumor-bearing mice at 10 mg/kg every 3 days. In the control administration group, 200 μL of 1-time concentrated α-MEM was intraperitoneally administered to tumor-bearing mice every 3 days. The mice were weighed on DRETEC weighing scale (DRETEC CO., Ltd., Japan) and the tumor size (estimation volume (shortest diameter×longer diameter×height×pi/6 mm^3)) was measured with a vernier caliper (maximum: 150 mm, minimum: 0.05 mm) (MITUTOYO, Japan) every 3 days.\nExample 3 and Comparative Example 4 (Dox) were treated to be at 5 or 1.2 mg/kg, respectively in the same manner as that of Example 2, and administered to the tumor-bearing mice. The tumor size was measured by the same procedure as above.\nFIG. 7 is a graph illustrating transitions of tumor size in the control (N=2), Comparative Example 4(N=2) and Example 3 administration group (N=2). The vertical axis represents the average value of tumor size±standard deviation (SD) and the horizontal axis represents the days after administration. […] The tumor size day 24 grew to about 2,000 mm^3 in the control and Comparative Example 4 administration group. […] That is, the tumors largely shrank due to not only anticancer effect of the peptide itself but also the effect of the anticancer agent. The peptides of the present invention specifically act on the target cells compared with the single administration of the anticancer agent and have high toxicity against the cancer cells."}, "HT-1080 cells [2]": {"test_system": "HT-1080 cells", "assay": "Test of monitoring changes in mitochondrial membrane potential (JC-1 apoptosis rate)", "assay_type": "cell-based, human", "conditions": "7 days, Example 1 at 25, 50 and 100 μg/mL, Comparative Examples at 50 and 100 μg/mL", "procedure": "(§1) Human fibrosarcoma-derived HT-1080 cells (HT-1080 cells, JCRB cell bank) were used as cancer cells in the test for monitoring changes in mitochondrial membrane potential. […]\n(§2) The synthetic peptide of Example 1 or Comparative Examples 1 to 3 was individually added to the HT-1080 cells, and the cells were cultured in a serum-supplemented medium (α-MEM+10% FBS). […] Further, the cells were washed once with PBS followed by the addition of 100 μL of PBS, scanned with a confocal laser scanning microscope LSM800 (Zeiss) and then analyzed with ImageJ. […]"}, "Gin-1 cells": {"test_system": "Gin-1 cells", "assay": "Test of monitoring changes in mitochondrial membrane potential (JC-1 apoptosis rate), normal cells", "assay_type": "cell-based, human", "conditions": "50 μg/mL", "procedure": "as §1, §2"}},
  "note": "Non-standard residues stand in square brackets, D forms with d. Primed or numbered codes have the meaning given here. No end group written: not given here. *: point of attachment. FITC = O=C1OC2(c3ccc(O)cc3Oc3cc(O)ccc32)c2ccc(NC(=S)*)cc21; PEG4′ = not defined here; PEG5′ = not defined here; Ahx = NCCCCCC(=O)O",
  "data": [
    {"molecule": "Example 5: peptide of SEQ ID NO: 2 labeled with FITC via an Ahx linker at the N-terminus ({FITC}-[Ahx]KDNRGNLLQCICTGNGRGEWKC; cysteine pairing not given here)", "values": [
      {"measurement": "dead cell rate", "setting": "HT-1080 cells [1]; 50 or 100 μg/mL", "result": "≥ 50", "unit": "%"}
    ]},
    {"molecule": "Example 6: peptide of SEQ ID NO: 6 labeled with FITC via an Ahx linker at the N-terminus ({FITC}-[Ahx]KHGLYNLKQCKMSLNGQRGECWC; cysteine pairing not given here)", "values": [
      {"measurement": "dead cell rate", "setting": "HT-1080 cells [1]; 12.5 μg/mL substantially same as 100 μg/mL", "result": "about 35%"}
    ]},
    {"molecule": "Example 3 ({doxorubicin-PEG5′-DBCO‑azide-PEG4′}-KDNRGNLLQCVCTGNGRGEWKC; cysteine pairing not given here)", "values": [
      {"measurement": "suppression of tumor proliferation compared with the control and Comparative Example 4 administration group", "setting": "HT-1080 cells tumor; 5 mg/kg, between days 18 and 24, N=2", "result": "significant difference at the level of 1%"},
      {"measurement": "suppression effect on tumor", "setting": "HT-1080 cells tumor; 5 mg/kg, to the day 24", "result": "suppression effect was confirmed"}
    ]},
    {"molecule": "KDNRGNLLQCVCTGNGRGEWKC (This is derived from a part of CD ligand.; BINDING (3)..(6); BINDING (13)..(17)) [Example 1]", "values": [
      {"measurement": "increase in apoptosis rate (number of green cell dyed with JC1/number of total cells)", "setting": "HT-1080 cells [2]", "result": "increase in apoptosis rate of the HT-1080 cells was confirmed"},
      {"measurement": "increase in apoptosis rate", "setting": "Gin-1 cells", "result": "not observed"}
    ]},
    {"molecule": "COc1cccc2c1C(=O)c1c(O)c3c(c(O)c1C2=O)C[C@@](O)(C(=O)CO)C[C@@H]3O[C@H]1C[C@H](N)[C@H](O)[C@H](C)O1", "note": "[Comparative Example 4, Doxorubicin, reference compound]", "values": [
      {"measurement": "tumor size", "setting": "HT-1080 cells tumor; 1.2 mg/kg, day 24, N=2", "result": "about 2,000 mm^3"}
    ]}
  ]
}
